US20100099676A1 (SHIONOGI & CO., LTD., priority 2006, published 2010)

Experiments:
Assay in all cases: Enzyme inhibiting activity of MMPs, fluorogenic peptide substrate
Assay type in all cases: biochemical
[1] = target: T1, MMP-13 (Homo sapiens, UniProt P45452); details: APMA-activated proenzyme; substrate MOCAc-Pro-Leu-Gly-Leu-A2Pr(DNP)-Ala-Arg-NH2, fluorescent intensity; read-out: IC50 MMP-13
T1 construct: purchased Calbiochem (EMD/MERCK Biosciences)
Protocol: (§1) Various human MMPs (MMP-2, MMP-9 and MMP-13) were purchased from Calbiochem (EMD/MERCK Biosciences).
Since the purchased MMP-13 was Proenzyme, the activated one was used, which was incubated at 37° C. for 2 hours after the successive addition of an assay buffer (containing 50 mM Tris-HCl (pH7.6), 0.3 M NaCl, 10 mM CaCl2, 0.005% Brij35) and APMA (final concentration 1 mM) to the enzyme solution.
(§2) The enzyme activity of MMPs was measured according to the method described in C. Graham Knight, Frances Willenbrock and Gillian Murphy: A novel coumarin-labelled peptide for sensitive continuous assays of the matrix metalloproteinases: FEBS LETT., 296, (1992), 263-266. As a substrate, MOCAc-Pro-Leu-Gly-Leu-A2Pr(DNP)- Ala-Arg-NH2 (Peptide Institute, Inc. Osaka, Japan) was used, and the following four assays are performed per compound (inhibitor) for measuring the inhibiting activity.
(§3) (A) Substrate (synthetic substrate), enzyme (MMPs), inhibitor
(§4) (B) Substrate (synthetic substrate), inhibitor
(§5) (C) Substrate (synthetic substrate), enzyme (MMPs)
(§6) (D) Substrate (synthetic substrate)
(§7) In each assay, the fluorescent intensity was measured, and inhibition (%) was calculated by the following equation.
(§8) Inhibition (%)=[I−(A−B)/(C−D)]×100
(§9) IC50 indicates a concentration at which inhibition (%) is 50%.

[2] = target: T2, MMP-9 (Homo sapiens, UniProt P14780); details: substrate MOCAc-Pro-Leu-Gly-Leu-A2Pr(DNP)-Ala-Arg-NH2, fluorescent intensity
T2 construct: purchased Calbiochem (EMD/MERCK Biosciences)
Protocol: as §1, §2, §3, §4, §5, §6, §7, §8, §9

[3] = target: T3, MMP-2 (Homo sapiens, UniProt P08253); details: substrate MOCAc-Pro-Leu-Gly-Leu-A2Pr(DNP)-Ala-Arg-NH2, fluorescent intensity
T3 construct: purchased Calbiochem (EMD/MERCK Biosciences)
T3 sequence (P08253 110-660): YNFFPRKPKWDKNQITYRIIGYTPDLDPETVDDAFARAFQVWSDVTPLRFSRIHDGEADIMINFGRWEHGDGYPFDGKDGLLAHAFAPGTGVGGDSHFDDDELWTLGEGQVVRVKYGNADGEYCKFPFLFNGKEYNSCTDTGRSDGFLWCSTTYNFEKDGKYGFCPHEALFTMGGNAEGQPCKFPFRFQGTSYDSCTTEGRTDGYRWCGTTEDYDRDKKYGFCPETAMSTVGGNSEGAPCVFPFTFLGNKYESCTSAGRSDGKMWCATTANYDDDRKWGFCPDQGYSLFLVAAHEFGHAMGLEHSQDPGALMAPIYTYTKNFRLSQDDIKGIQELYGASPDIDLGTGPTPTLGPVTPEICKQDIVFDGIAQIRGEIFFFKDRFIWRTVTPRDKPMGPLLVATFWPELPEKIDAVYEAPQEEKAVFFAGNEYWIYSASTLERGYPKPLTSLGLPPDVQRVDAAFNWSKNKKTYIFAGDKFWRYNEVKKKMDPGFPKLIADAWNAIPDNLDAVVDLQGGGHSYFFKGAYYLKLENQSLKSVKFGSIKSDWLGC
Protocol: as §1, §2, §3, §4, §5, §6, §7, §8, §9

T2 sequence (P14780 94-707): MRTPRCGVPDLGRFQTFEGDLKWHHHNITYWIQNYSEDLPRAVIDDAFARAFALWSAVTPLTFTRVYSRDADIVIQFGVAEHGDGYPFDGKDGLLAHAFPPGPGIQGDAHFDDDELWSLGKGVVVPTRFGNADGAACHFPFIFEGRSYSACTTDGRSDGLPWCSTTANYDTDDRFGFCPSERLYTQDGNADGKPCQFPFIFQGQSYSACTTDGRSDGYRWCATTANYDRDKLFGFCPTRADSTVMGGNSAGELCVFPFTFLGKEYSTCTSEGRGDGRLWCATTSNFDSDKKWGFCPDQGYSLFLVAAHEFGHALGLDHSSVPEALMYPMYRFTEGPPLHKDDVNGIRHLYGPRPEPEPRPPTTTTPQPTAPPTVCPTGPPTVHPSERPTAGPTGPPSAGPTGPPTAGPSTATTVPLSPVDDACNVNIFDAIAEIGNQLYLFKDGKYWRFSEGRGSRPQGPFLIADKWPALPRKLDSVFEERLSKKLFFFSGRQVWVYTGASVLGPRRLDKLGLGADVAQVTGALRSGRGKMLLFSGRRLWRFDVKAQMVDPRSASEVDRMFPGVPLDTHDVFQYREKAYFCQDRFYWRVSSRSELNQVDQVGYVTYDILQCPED

| Structure (SMILES) | IC50 [1] | IC50 [2] | IC50 [3] |
| --- | --- | --- | --- |
| C[C@@H](NS(=O)(=O)N1CCN(c2ccc(C#Cc3cccc(C(=O)NCc4ccccc4)c3)cc2)CC1)C(=O)O [Compound I-1, (1)-2-{4-[4-(3-benzylcarbamoylphenylethynyl)-phenyl]-piperazine-1-sulfonylamino}-proponic acid] | 2.1 nM | > 10000 nM | 100 to 1000 nM |
| C[C@@H](NS(=O)(=O)N1CCN(c2ccc(/C=C/c3cccc(C(=O)NCc4ccccc4)c3)cc2)CC1)C(=O)O [Compound I-2, (R)-2-(4-{4-[(E)-2-(3-benzylcarbamoylphenyl)-vinyl]-phenyl}-piperazine-1-sulfonylamino)-proponic acid] | 3.8 nM | > 10000 nM | 100 to 1000 nM |
| C[C@@H](NS(=O)(=O)N1CCN(c2ccc(C#Cc3ccc4cccc(C(=O)N5CCOCC5)c4c3)cc2)CC1)C(=O)O [Compound I-33, (R)-2-(4-{4-[8-(morpholine-4-carbonyl)-naphthalen-2-ylethynyl]-phenyl}-piperazine-1-sulfonylamino)-proponic acid] | 11 nM | > 10000 nM | 1000 to 10000 nM |
| C[C@@H](NS(=O)(=O)N1CCN(c2ccc(C#Cc3ccc4c(c3)C(c3ccco3)=CCC4)cc2)CC1)C(=O)O [Compound I-112, (R)-2-{4-[4-(8-furan-2-yl-5-6-dihydronaphthalen-2-ylethynyl)-phenyl]-piperazine-1-sulfonylamino}-proponic acid] | 62 nM | > 10000 nM | > 10000 nM |
| C[C@@H](NS(=O)(=O)N1CCN(c2ccc(C#Cc3ccc4c(c3)/C(=N\OCc3ccccc3)CCO4)cc2)CC1)C(=O)O [Compound I-113, (R)-2-[4-(4-{4-[(Z)-benzyloxyimino]-chroman-6-ylethynyl}-phenyl)-piperazine-1-sulfonylamino]-proponic acid] | 71 nM | > 10000 nM | > 10000 nM |
| C[C@@H](NS(=O)(=O)N1CCN(c2ccc(C#Cc3ccc4c(c3)c(/C=C/C#N)cn4C)cc2)CC1)C(=O)O [Compound I-114, (R)-2-(4-{4-[3-((E)-2-cyanovinyl)-1-methyl-1H-indol-5-ylethynyl]-phenyl}-piperazine-1-sulfonylamino)-proponic acid] | 11 nM | > 10000 nM | 1000 to 10000 nM |
| Cc1cc(C(=O)NC(C)C)c2cc(C#Cc3ccc(N4CCN(S(=O)(=O)N[C@H](C)C(=O)O)CC4)cc3)ccc2n1 [Compound I-115, (R)-2-{4-[4-(4-isopropylcarbamoyl-2-methylquinolin-6-ylethynyl)-phenyl]-piperazine-1-sulfonylamino}-proponic acid] | 12 nM | > 10000 nM | 1000 to 10000 nM |
| CC(=O)c1nccc2ccc(C#Cc3ccc(N4CCN(S(=O)(=O)N[C@@H](C(=O)O)C(C)C)CC4)cc3)cc12 [Compound V-1, (R)-2-{4-[4-(1-acetylisoquinolin-7-ylethynyl)-phenyl]-piperazine-1-sulfonylamino}-3-methylbutanoic acid] | 46 nM | > 10000 nM | 1000 to 10000 nM |
| C[C@@H](NS(=O)(=O)N1CCN(c2ccc(C#Cc3ccnc(C(=O)NCc4ccc5c(c4)oc(=O)n5C)c3)cc2)CC1)C(=O)O [Compound V-2, (R)-2-[4-(4-{2-(3-methyl-2-oxo-2,3-dihydrobenzoxazol-6-ylmethyl)-carbamoyl]-pyridin-4-ylethynyl}-phenyl)-piperazine-1-sulfonylaminol-proponic acid] | 1 nM | > 10000 nM | 1000 nM |
| CC(C)COc1ccc(C#Cc2ccc(N3CCN(S(=O)(=O)N[C@@H](C(=O)O)C(C)C)CC3)cc2)cc1C(=O)NCc1ccncc1 [Compound V-5, (R)-2-[4-(4-{4-isobutoxy3-[(pyridin-4-ylmethyl)carbamoyl]-phenylethynyl}-phenyl)-piperazine-1-sulfonylamino]-3-methylbutanoic acid] | 18 nM | > 10000 nM | 1000 to 10000 nM |
| CC(C)COc1ccc(C#Cc2ccc(N3CCN(S(=O)(=O)N[C@@H](C(=O)O)C(C)C)CC3)cc2)cc1C(=O)NCc1ccc(S(C)(=O)=O)cc1 [Compound V-6, (R)-2-(4-{4-[4-isobutoxy-3-(4-methanesulfonylbenzylcarbamoyl)-phenylethynyl]-phenyl}-piperazine-1-sulfonylamino)-3-methylbutanoic acid] | 19 nM | > 10000 nM | > 10000 nM |
| COc1ccc(CNC(=O)c2cc(C#Cc3ccc(N4CCN(S(=O)(=O)NC(C)(C)C(=O)O)CC4)cc3)ccn2)cc1 [Compound V-7, 2-(4-{4-[2-(4-methoxybenzylcarbamoyl)-pyridin-4-ylethynyl]-phenyl}-piperazine-1-sulfonylamino)-2-methylproponic acid] | 12 nM | > 10000 nM | 1000 to 10000 nM |
| CC(C)Cc1coc(-c2cc(C#Cc3ccc(N4CCN(S(=O)(=O)N[C@@H](C(=O)O)C(C)C)CC4)cc3)ccn2)n1 [Compound V-8, (R)-2-(4-{4-[2-(4-isobutyloxazol-2-yl)-pyridin-4-ylethynyl]-phenyl}-piperazine-1-sulfonylamino)-3-methylbutanoic acid] | 7 nM | > 10000 nM | 1000 to 10000 nM |
| C[C@@H](NS(=O)(=O)N1CCN(c2ccc(C#Cc3nc(-c4cccc(OCc5ccccc5)c4)cs3)cc2)CC1)C(=O)O [Compound V-11, (R)-2-(4-{4-[4-(3-benzyloxyphenyl)-thiazol-2-ylethynyl]-phenyl}-piperazine-1-sulfonylamino)-proponic acid] | 14 nM | > 10000 nM | 1000 to 10000 nM |
| COc1ccc(C#Cc2ccc(N3CCN(S(=O)(=O)N[C@H](C)C(=O)O)CC3)cc2)cc1-c1ncc(CC(=O)NCc2ccccc2)o1 [Compound V-12, (R)-2-[4-(4-{3-[5-(benzylcarbamoylmethyl)-oxazol-2-yl]-4-methoxyphenylethynyl}-phenyl)-piperazine-1-sulfonylamino]-proponic acid] | 4 nM | > 10000 nM | 1000 to 10000 nM |
| C[C@@H](NS(=O)(=O)N1CCN(c2ccc(C#Cc3nc(-c4cccc(C(=O)NCc5ccccc5)c4)cs3)cc2)CC1)C(=O)O [Compound V-14, (R)-2-(4-{4-[4-(3-benzylcarbamoylphenyl)-thiazol-2-ylethynyl]-phenyl}-piperazine-1-sulfonylamino)-proponic acid] | 6 nM | > 10000 nM | 1000 to 10000 nM |
| COc1ccc(F)cc1-c1csc(C#Cc2ccc(N3CCN(S(=O)(=O)N[C@H](C)C(=O)O)CC3)cc2)n1 [Compound V-15, (R)-2-(4-{4-[4-(5-fluoro-2-methoxyphenyl)-thiazol-2-ylethynyl]-phenyl}-piperazine-1-sulfonylamino)-proponic acid] | 13 nM | > 10000 nM | 1000 to 10000 nM |
| COCCOc1ccc(C#Cc2ccc(N3CCN(S(=O)(=O)N[C@H](C)C(=O)O)CC3)cc2)cc1-c1ncc(CC(=O)NCc2ccccc2)o1 [Compound V-19, (R)-2-(4-{4-[3-[5-(benzylcarbamoylmethyl)-oxazol-2-yl]-4-(2-methoxyethoxy)-phenylethynyl]-phenyl}-piperazine-1-sulfonylamino)-proponic acid] | 8 nM | > 10000 nM | 1000 to 10000 nM |
| C[C@@H](NS(=O)(=O)N1CCN(c2ccc(C#Cc3nc(-c4cccc(OCc5ccc(S(C)(=O)=O)cc5)c4)cs3)cc2)CC1)C(=O)O [Compound V-20, (R)-2-[4-(4-{4-[3-(4-methanesulfonylbenzyloxy)-phenyl]-thiazol-2-ylethynyl}-phenyl)-piperazine-1-sulfonylamino]-proponic acid] | 1 nM | > 10000 nM | 1000 to 10000 nM |
| COC(=O)c1ccc(COc2cccc(-c3csc(C#Cc4ccc(N5CCN(S(=O)(=O)N[C@H](C)C(=O)O)CC5)cc4)n3)c2)cc1 [Compound V-22, 4-[3-(2-{4-[4-((R)-1-carboxyethylsulfamoyl)-piperazin-1-yl]-phenylethynyl}-thiazol-4-yl)-phenoxymethyl]-benzoic acid methyl ester] | 8 nM | > 10000 nM | > 10000 nM |
